Our source for the IC50 values is patent US12128028B2, “Heterocyclic sulfonamide derivatives and pharmaceutical uses thereof” (METRION BIOSCIENCES LIMITED, priority 2018, dated 2024).

Chain of human Kv1.3 (P22001 whole entry): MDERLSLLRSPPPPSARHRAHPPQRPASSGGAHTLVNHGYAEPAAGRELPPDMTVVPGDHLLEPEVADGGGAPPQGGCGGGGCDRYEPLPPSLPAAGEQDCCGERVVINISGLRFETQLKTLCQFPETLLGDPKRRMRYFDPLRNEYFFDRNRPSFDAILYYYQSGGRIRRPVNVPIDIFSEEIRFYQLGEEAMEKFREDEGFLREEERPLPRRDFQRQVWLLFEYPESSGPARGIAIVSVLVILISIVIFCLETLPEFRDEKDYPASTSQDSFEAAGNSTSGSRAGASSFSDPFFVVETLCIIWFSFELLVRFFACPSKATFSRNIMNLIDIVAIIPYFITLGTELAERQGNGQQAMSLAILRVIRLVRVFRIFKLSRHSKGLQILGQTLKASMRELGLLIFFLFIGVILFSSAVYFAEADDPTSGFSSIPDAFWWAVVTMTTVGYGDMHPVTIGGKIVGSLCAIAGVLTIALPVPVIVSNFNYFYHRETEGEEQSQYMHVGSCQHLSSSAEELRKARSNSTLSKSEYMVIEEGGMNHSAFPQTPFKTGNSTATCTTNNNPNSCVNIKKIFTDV

The target in the test is human Kv1.3 (Homo sapiens (Human), UniProt P22001). The experiment in a line: Kv1.3 potency evaluation, automated patch clamp electrophysiology (QPatch HT) in CHO-Kv1.3 cells. Type of test: cell-based. The conditions noted are these: whole-cell QPatch HT, % inhibition of charge, step to +30 mV, four concentrations, N≥3 cells, read-out: hKv1.3 IC50. The text has this:
Biological Assays Kv1.3 Potency Evaluation Electrophysiology Recordings
A proprietary Chinese hamster ovary cell line stably expressing exogenous human a-subunits of Kv1.3 (CHO-Kv1.3) channel, validated biophysically and pharmacologically in house, was used to assess the ability of test compounds to block Kv1.3 currents using automated patch clamp electrophysiology. The QPatch HT system (Sophion Bioscience A/S, Denmark) was used with the conventional whole-cell configuration. This system is an automated, chip-based planar patch clamp device allowing for up to 48 parallel independent experiments in one experimental assay run. Cells are added to each well and drawn by suction onto a small aperture to obtain a Gigaohm seal between the cell membrane and treated silicon surface, and whole-cell recordings initiated after access is achieved by suction and/or voltage pulses. The QPatch HT uses static perfusion, whereby a small volume of recording solution or drug is added to a reservoir on the chip and the solution perfuses across the cell through quartz-lined microfluidic channels; this solution is removed by capillary action when the next sample application is made.
CHO-Kv1.3 cells were prepared for experiments by dissociation from T175 cell culture flasks using trypsin-EDTA (0.05%), cells were kept in serum free media in the cell hotel on board the QPatch HT. These cells were sampled, washed and re-suspended in extracellular recording solution by the QPatch HT immediately before application to the recording well site on the chip. Experiments were performed using the following solutions; extracellular solution contained (in mM); 150 NaCl, 10 KCl, 1 MgCl2, 3 CaCl2), 10 Glucose and 10 HEPES (pH 7.4, NaOH) and intracellular solution contained (in mM); 20 KCl, 120 KF, 10 HEPES, 10 EGTA, 5 ATP (pH 7.2, KOH).
The potency (Inhibitory Concentration 50%, IC50) of synthesized compounds against Kv1.3 was determined from concentration-response relationships established by cumulatively applying four escalating concentrations of test compound to an individual cell and a minimum of N≥3 individual cells of data per compound were used to generate the IC50 value.
On achieving the whole-cell configuration; two additions of vehicle (0.1-0.3% DMSO v/v) were applied to each cell in two bolus additions with a two minute recording period between each addition (four minutes total recording time). Following the vehicle period, four concentrations of test sample were applied as two bolus additions per test concentration at two minute intervals, and the effects on current measured during the four minute recording period.
Currents were elicited using a single step voltage protocol. From a holding potential of −80 mV the cell is depolarised to +30 mV (500 ms) resulting in an outward current before finally repolarising the cell by returning to the holding potential. The command voltage was applied at a frequency of 0.067 Hz throughout the duration of the experiment. For each sweep of the voltage protocol membrane current and the passive properties of the individual cells were recorded by QPatch assay software (version 5.2). Cursors were placed to calculate the charge (integral of the current recorded during cursor interval) between 2-490 ms (0.4-99%) of the 500 ms step to +30 mV.
The % inhibition of charge for each test concentration application period was calculated as the reduction in mean charge at the end of each concentration test period relative to the charge value measured at the end of the control (i.e. vehicle) period. Sigmoidal concentration response curves (four parameter logistic curve) were fitted to the % inhibition rom which the IC50 was determined. Curve fits were constrained at 0 and 100%.
For orientation: IC50 means the concentration at which inhibition is half-maximal. With `CC1(C)N=C(C23CC(N(Cc4cccc(F)c4)S(=O)(=O)c4ccccc4)(C2)C3)N[C@H]1C(=O)NCCC(F)(F)F` (mixture of isomers) [Example 40], the IC50 is 0.046 µM. The result for `CC1(C)N=C(C23CC(N(Cc4ccc(Cl)cc4)S(=O)(=O)c4ccco4)(C2)C3)N[C@H]1C(=O)NCCC(F)(F)F` (mixture of isomers) [Example 41] reads 0.046 µM; that for `CC1(C)N=C(C23CC(N(Cc4ccc(Cl)cc4)S(=O)(=O)C4CCCCC4)(C2)C3)N[C@H]1C(=O)NCCC(F)(F)F` (mixture of isomers) [Example 42], 0.046 µM.

For `CC1(C)N=C(C23CC(N(Cc4ccc(Cl)cc4)S(=O)(=O)N4CCCC4)(C2)C3)N[C@H]1C(=O)NCCC(F)(F)F` (mixture of isomers) [Example 43], the IC50 turned out to be 0.046 µM. The same measure for `C[C@H]1CC(F)(F)CN1C(=O)[C@@H]1NC(C23CC(N(Cc4ccc(Cl)c(F)c4)S(=O)(=O)c4ccccc4)(C2)C3)=NC1(C)C` (mixture of isomers) [Example 44]: 0.046 µM; for `CC1(C)N=C(C23CC(N(Cc4ccc(Cl)cc4)S(=O)(=O)c4ccccc4)(C2)C3)N[C@H]1C(=O)NC1CC(C(F)F)C1` (mixture of isomers) [Example 45]: 0.046 µM; for `CCCS(=O)(=O)N(Cc1ccc(Cl)c(Cl)c1)C12CC(C3=NC(C)(C)[C@H](C(=O)NCC(C)(C)C(F)(F)F)N3)(C1)C2` (mixture of isomers) [Example 46]: 0.047 µM. Take `CC1(C)N=C(C23CC(N(Cc4ccc(Cl)c(Cl)c4)S(=O)(=O)c4ccccc4)(C2)C3)N[C@H]1C(=O)NCC1CC(F)(F)C1` (mixture of isomers) [Example 47]: the IC50 amounted to 0.047 µM.

In the case of `CC1(C)N=C(C23CC(N(Cc4ccc(Cl)cc4)S(=O)(=O)c4ccccn4)(C2)C3)N[C@H]1C(=O)NCCC(F)(F)F` (mixture of isomers) [Example 48], the IC50 is 0.048 µM. The result for `CC1(C)N=C(C23CC(N(Cc4ccc(Cl)cc4)S(=O)(=O)c4ccccc4)(C2)C3)N[C@H]1C(=O)NCC(C)(C)C(F)(F)F` (mixture of isomers) [Example 49] reads 0.048 µM; that for `CC(C)(F)CNC(=O)[C@@H]1NC(C23CC(N(Cc4ccc(Cl)c(Cl)c4)S(=O)(=O)CCC(F)F)(C2)C3)=NC1(C)C` (mixture of isomers) [Example 50], 0.048 µM; that for `CC1(C)N=C(C23CC(N(Cc4ccc(Cl)cc4)S(=O)(=O)c4ccccc4)(C2)C3)N[C@H]1C(=O)NCC1CC1(F)F` (mixture of isomers) [Example 51], 0.048 µM.

With `CC1(C)N=C(C23CC(N(Cc4ccc(Cl)cc4)S(=O)(=O)c4cccc(Cl)c4)(C2)C3)N[C@H]1C(=O)NCCC(F)(F)F` (mixture of isomers) [Example 52], the IC50 is 0.049 µM. The same measure for `CC(C)(C)CNC(=O)[C@@H]1NC(C23CC(N(Cc4ccc(Cl)c(F)c4)S(=O)(=O)c4ccccc4)(C2)C3)=NC1(C)C` (mixture of isomers) [Example 53]: 0.049 µM. Take `CC(C)CS(=O)(=O)N(Cc1ccc(Cl)cc1)C12CC(C3=NC(C)(C)[C@H](C(=O)NCCC(F)(F)F)N3)(C1)C2` (mixture of isomers) [Example 54]: the IC50 stood at 0.05 µM. The same measure for `CC1(C)N=C(C23CC(N(Cc4ccc(Cl)c(F)c4)S(=O)(=O)c4ccccc4)(C2)C3)N[C@H]1C(=O)N1CC(F)(F)C1` (mixture of isomers) [Example 55]: 0.05 µM.

In the case of `CC1(C)N=C(C23CC(N(Cc4ccc(Cl)c(F)c4)S(=O)(=O)c4ccccc4)(C2)C3)N[C@H]1C(=O)NCC1CC1` (mixture of isomers) [Example 56], the IC50 stood at 0.05 µM.

In the case of `CC1(C)N=C(C23CC(N(Cc4ccc(Cl)c(F)c4)S(=O)(=O)c4ccccc4)(C2)C3)N[C@H]1C(=O)N1CCC2(CC2)C1` (mixture of isomers) [Example 57], the IC50 is 0.05 µM.

For the molecule `CN(CC(C)(C)F)C(=O)[C@@H]1NC(C23CC(N(Cc4ccc(Cl)c(Cl)c4)S(=O)(=O)c4ccccc4)(C2)C3)=NC1(C)C` (mixture of isomers) [Example 58], the IC50 stood at 0.05 µM. The result for `CC1(C)N=C(C23CC(N(Cc4ccc(Cl)cc4)S(=O)(=O)c4cccc(F)c4)(C2)C3)N[C@H]1C(=O)NCCC(F)(F)F` (mixture of isomers) [Example 59] reads 0.051 µM; that for `CC1(C)N=C(C23CC(N(Cc4ccc(Cl)c(F)c4)S(=O)(=O)c4ccccc4)(C2)C3)N[C@H]1C(=O)NC1CCC1` (mixture of isomers) [Example 60], 0.051 µM; that for `CC1(C)N=C(C23CC(N(Cc4ccc(Cl)c(F)c4)S(=O)(=O)c4ccccc4)(C2)C3)N[C@H]1C(=O)N1CC(F)(F)C(F)(F)C1` (mixture of isomers) [Example 61], 0.051 µM. The same measure for `CC1(C)N=C(C23CC(N(Cc4ccc(Cl)c(Cl)c4)S(=O)(=O)c4ccccc4)(C2)C3)N[C@H]1C(=O)NCCC(F)(F)F` (mixture of isomers) [Example 62]: 0.052 µM; for `CC1(C)N=C(C23CC(N(Cc4ccc(Cl)c(F)c4)S(=O)(=O)c4ccccc4)(C2)C3)N[C@H]1C(=O)NCC1CC(F)(F)C1` (mixture of isomers) [Example 63]: 0.052 µM; for `C[C@@H]1CCN(C(=O)[C@@H]2NC(C34CC(N(Cc5ccc(Cl)c(F)c5)S(=O)(=O)c5ccccc5)(C3)C4)=NC2(C)C)C1` (mixture of isomers) [Example 64]: 0.052 µM. The same measure for `CC1(C)N=C(C23CC(N(Cc4ccc(F)c(Cl)c4)S(=O)(=O)c4ccccc4)(C2)C3)N[C@H]1C(=O)NCCC(F)(F)F` (mixture of isomers) [Example 65]: 0.053 µM; for `CC1(C)N=C(C23CC(N(Cc4ccc(Cl)cc4)S(=O)(=O)c4ccc(Cl)cc4)(C2)C3)N[C@H]1C(=O)NCCC(F)(F)F` (mixture of isomers) [Example 66]: 0.053 µM. As to `CC1(C)N=C(C23CC(N(Cc4ccc(Cl)cc4)S(=O)(=O)CCC4CC4)(C2)C3)N[C@H]1C(=O)NCCC(F)(F)F` (mixture of isomers) [Example 67], the IC50 turned out to be 0.053 µM. The result for `CC1(C)N=C(C23CC(N(Cc4ccc(Cl)c(F)c4)S(=O)(=O)c4ccccc4)(C2)C3)N[C@H]1C(=O)NC1CC1` (mixture of isomers) [Example 68] reads 0.055 µM.

As to `CN(CC1CC1(F)F)C(=O)[C@@H]1NC(C23CC(N(Cc4ccc(Cl)c(F)c4)S(=O)(=O)c4ccccc4)(C2)C3)=NC1(C)C` (mixture of isomers) [Example 69], the IC50 came to 0.055 µM.

Take `CC1(C)N=C(C23CC(N(Cc4ccc(Cl)cc4)S(=O)(=O)c4cccc(C#N)c4)(C2)C3)N[C@H]1C(=O)NCCC(F)(F)F` (mixture of isomers) [Example 70]: the IC50 stood at 0.056 µM.

Consider `CC1(C)N=C(C23CC(N(Cc4ccc(Cl)c(F)c4)S(=O)(=O)c4ccccc4)(C2)C3)N[C@H]1C(=O)N1CCCC12CCC2` (mixture of isomers) [Example 71], for which the IC50 was 0.057 µM. Turning to `CC1(C)N=C(C23CC(N(Cc4ccc(Cl)c(Cl)c4)S(=O)(=O)CCC(F)F)(C2)C3)N[C@H]1C(=O)NC12CC(C1)C2` (mixture of isomers) [Example 72], the IC50 is 0.057 µM. Take `C[C@H](NC(=O)[C@@H]1NC(C23CC(N(Cc4ccc(Cl)c(F)c4)S(=O)(=O)c4ccccc4)(C2)C3)=NC1(C)C)C(F)(F)F` (mixture of isomers) [Example 73]: the IC50 turned out to be 0.058 µM.
